Columns and labels:
Rattus norvegicus [1] = test: Gastrointestinal toxicity in Wistar albino Rattus norvegicus (rat) stress model assessed as ulcerogenicity index at 25 mg/kg/day, po for 4 days measured on day 5 relative to diclofenac sodium; assay type: organism-based; set-up: route oral; details: in vivo, 96 h
Rattus norvegicus [2] = test: Gastrointestinal toxicity in Wistar albino Rattus norvegicus (rat) stress model assessed as ulcerogenicity index at 25 mg/kg/day, po for 4 days measured on day 5; assay type: organism-based; set-up: route oral; details: in vivo, 96 h
Mus musculus = test: Analgesic activity in Albino Mus musculus (mouse) assessed as inhibition of acetic acid-induced abdominal writhings at 25 mg/kg, po administered 50 min prior to acetic acid injection measured after 10 min; assay type: functional; details: Abdomen
Rattus norvegicus [3] = test: Anti-inflammatory activity in carrageenan-induced paw edema Wistar albino Rattus norvegicus (rat) model assessed as change in paw volume at 25 mg/kg, po administered 1 hr prior to carrageenan-challenge measured after 3 hr by plethysmometer (reference value: 1.200 +/-0.08 ml); assay type: functional
Rattus norvegicus [4] = test: Anti-inflammatory activity in Wistar albino Rattus norvegicus (rat) assessed as inhibition of carrageenan-induced paw edema at 25 mg/kg, po administered 1 hr prior to carrageenan-challenge measured after 2 hr by plethysmometer; assay type: functional
Rattus norvegicus [5] = test: Anti-inflammatory activity in Wistar albino Rattus norvegicus (rat) assessed as inhibition of carrageenan-induced paw edema at 25 mg/kg, po administered 1 hr prior to carrageenan-challenge measured after 1 hr by plethysmometer; assay type: functional
Rattus norvegicus [6] = test: Anti-inflammatory activity in carrageenan-induced paw edema Wistar albino Rattus norvegicus (rat) model assessed as change in paw volume at 25 mg/kg, po administered 1 hr prior to carrageenan-challenge measured after 2 hr by plethysmometer (reference value: 1.110 +/-0.07 ml); assay type: functional
Rattus norvegicus [7] = test: Anti-inflammatory activity in carrageenan-induced paw edema Wistar albino Rattus norvegicus (rat) model assessed as change in paw volume at 25 mg/kg, po administered 1 hr prior to carrageenan-challenge measured after 1 hr by plethysmometer (reference value: 0.900 +/-0.03 ml); assay type: functional
Rattus norvegicus [8] = test: Anti-inflammatory activity in Wistar albino Rattus norvegicus (rat) assessed as inhibition of carrageenan-induced paw edema at 25 mg/kg, po administered 1 hr prior to carrageenan-challenge measured after 3 hr by plethysmometer; assay type: functional

SMILES	Activity (Rattus norvegicus [1]) [%]	UI (Rattus norvegicus [2])	inhibition in vivo at 25 mg/kg (Mus musculus) [%]	Activity (Rattus norvegicus [3]) [mL]	inhibition in vivo at 25 mg/kg (Rattus norvegicus [4]) [%]	inhibition in vivo at 25 mg/kg (Rattus norvegicus [5]) [%]	Activity (Rattus norvegicus [6]) [mL]	Activity (Rattus norvegicus [7]) [mL]	inhibition in vivo at 25 mg/kg (Rattus norvegicus [8]) [%]
O=c1[nH]nc(-c2csc(-c3ccccc3)n2)o1	10	0.44	42.2	0.935	49.1	34.8	0.885	0.825	48.4
c1ccc(-c2nc(-c3nnco3)cs2)cc1	–	–	18.1	1.052	31.5	24.2	0.962	0.842	27
Nn1c(-c2csc(-c3ccccc3)n2)n[nH]c1=O	–	–	19.7	1.074	23.1	15.2	0.979	0.844	19
S=c1oc(-c2csc(-c3ccccc3)n2)nn1CN1CCCCC1	10	0.54	58.7	0.862	57.4	44.8	0.812	0.764	55.5
c1ccc(-c2nc(-c3nnn[nH]3)cs2)cc1	–	–	16.5	0.935	38.1	30.8	0.885	0.825	40.4
Nc1nnc(-c2csc(-c3ccccc3)n2)o1	–	–	20.3	1.105	25.5	18.2	1.012	0.88	21.4
CCOC(=O)c1cnn(C(=O)c2csc(-c3ccccc3)n2)c1N	10	0.6	61.2	0.79	63	45.1	0.74	0.721	60.3
c1ccc(-c2nc(-c3nnc(SCCN4CCOCC4)o3)cs2)cc1	–	–	21.8	1.076	23.5	14.5	0.995	0.864	21.6
O=C([O-])Cc1ccccc1Nc1c(Cl)cccc1Cl.[Na+] [DICLOFENAC SODIUM]	–	4.67	58	0.85	56.7	40.6	0.8	0.762	54.9
CN(C)CCSc1nnc(-c2csc(-c3ccccc3)n2)o1	–	–	18.6	0.999	31.1	22.7	0.904	0.787	25.9
Sc1nnc(-c2csc(-c3ccccc3)n2)o1	10	0.52	58.1	0.84	53.8	37.9	0.78	0.735	50.8
Nc1cc(-c2ccccc2)nn1C(=O)c1csc(-c2ccccc2)n1	10	0.62	60.1	0.942	60.5	42.1	0.873	0.851	55.2
